Reference: patent US10413541B2, “Oxabicycloheptanes and oxabicycloheptenes for the treatment of depressive and stress disorders” (LIXTE BIOTECHNOLOGY, INC., priority 2015, dated 2019)
Read-outs that look alike come from different tables or passages of the source.

Columns and labels:
C57Bl/6J mice [1] = experiment: Forced swim test after FsE; format: in vivo; conditions: for FsE-driven impairment in the forced swim test (depressive-like phenotype): LB100 ip 6-8 h after FsE, 7 days after FsE
Description: (§1) The inescapable shock procedure was previously described in Stamatakis and Stuber 2012. Briefly, we placed mice into standard mouse behavioral chambers (Imetronics) equipped with a metal grid floor. We let them to habituate at the new environment for 5 m. In a 20 m session animals received either 19 or 0 unpredictable foot shocks (1 mA, 500 ms) with an interstimulus interval of 30, 60 or 90 s. We anesthetized mice for patch-clamp electrophysiology 1 h, 24 h, 7 d, 14 d or 30 d after the session ended.
(§2) For LB treatment experiments, mice were injected with LB (1.5 mg/Kg i.p.) or saline 6-8 hours after the FsE. The effects of the treatment on the LHb excitability and GABAB-GIRKs currents as well as the behavioural assay were assessed at day 1 or 7. For both electrophysiology and behaviour once treated the animal were housed in groups of 4-6 and let undisturbed until the day of the test.
Forced swim test was conducted under normal light condition as previously described (Meye, Valentinova, Lecca et al 2015). Mice were placed in a cylinder of water (temperature 23-25° C.; 14 cm in diameter, 27 cm in height for mice) for six min. The depth of water was set to prevent animals from touching the bottom with their hind limbs. Animal behavior was videotracked from the top (Viewpoint, France). The latency to the first immobility event and the immobility time of each animal spent during the test was counted online by two independent observer blind of the animal treatments. Immobility was defined as floating or remaining motionless, which means absence of all movement except motions required to maintain the head above the water.

GIRK channels = experiment: GTPγS-induced Ba2+-sensitive outward current (I-GTPγS) in LHb neurons of brain slices; format: cell-based, mice; conditions: LB100 in the bath; for Ba2+ sensitive I-GTPγS current: GTPγS 100 μM internal
Description: Animals were anesthetized with Ketamine/Xylazine (50 mg/10 mg Kg-1 i.p.; Sigma-Aldrich, France). The preparation of LHb-containing brain slices was done in bubbled ice-cold 95% O2/5% CO2-equilibrated solution containing (in mM): cholineCl 110; glucose 25; NaHCO3 25; MgCl2 7; ascorbic acid 11.6; Na+-pyruvate 3.1; KCl 2.5; NaH2PO4 1.25; CaCl2 0.5. Sagittal slices (250 μm) were stored at room temperature in 95% O2/5% CO2-equilibrated artificial cerebrospinal fluid (ACSF) containing (in mM): NaCl 124; NaHCO3 26.2; glucose 11; KCl 2.5; CaCl2 2.5; MgCl2 1.3; NaH2PO4 1. Recordings (flow rate of 2.5 ml/min) were made under an Olympus-BX51 microscope (Olympus, France) at 32° C. Currents were amplified, filtered at 5 kHz and digitized at 20 kHz. Access resistance was monitored by a step of −4 mV (0.1 Hz). Experiments were discarded if the access resistance increased more than 20%.
(§3) Cell-attached recordings in ACSF were performed in GΩ seal with a Vc=0 and Hc=0. Whole-cell voltage clamp recordings were achieved to measure GABAB-GIR currents in presence of Bicuculine (10 μM), NBQX (20 μM) and AP5 (50 μM). […] GABAB-GIRK currents were confirmed by antagonism with either 10 μM of CGP54626, a specific GABAB antagonist or 1 mM Ba^2, a selective inhibitor of inward rectifiers. For the GTPγS experiment, 100 μM of GTPγS was added to the internal solution in place of Na3GTP.

[2] = system: GABAB-GIRK currents in LHb neurons; experiment: In vivo LB100 treatment after foot-shock exposure (FsE), I-baclofen recorded in LHb slices; parameters: species or system mice; conditions: for FsE-induced decrease in I-baclofen (CTRL vs FsE): 7 days after FsE; for FsE-induced I-baclofen attenuation (CTRL vs FsE): one day after FsE
Description: as §1, §3, §2

cancer cells = conditions: cited from earlier work; for Anti-cancer activity when used alone: mouse model systems (Lu et al. 2009a)
PP2A = PP2A (Homo sapiens, UniProt P67775); conditions: cited from earlier work
C57Bl/6J mice [3] = experiment: Re-exposure to the context test (freezing) after FsE; format: in vivo; conditions: LB100 ip 6-8 h after FsE; one day after FsE
Description: as §1, §2
For this experiment mice were re-exposed 24 h after to the chamber where they received (or not) shocks for a total duration of 5 m. […] The behavior was scored according to a 5-sec instantaneous time-sampling procedure every 25 sec (Fanselow and Bolles 1979). The observer scored the animal as freezing, scanning or active at that instant and then proceeded to the next chamber. […] Thus each animal was scored […], yielding 10 observations for each mouse for total 5 minutes session. […]

[4] = system: GABAB-GIRK currents in LHb neurons; format: cell-based, mice; conditions: LB100 0.1 μM in the bath; for I-baclofen current: mean±s.e.m.
[5] = LB-100 ip 6-8 h after FsE, FST 7 days after FsE
[6] = LB100 1.5 mg/kg ip 6-8 h after FsE, 1.5 mg/kg
[7] = LB100 1.5 mg/kg ip 6-8 h after FsE, listed as LB-100, 1.5 mg/kg

Chain of PP2A (P67775 whole entry): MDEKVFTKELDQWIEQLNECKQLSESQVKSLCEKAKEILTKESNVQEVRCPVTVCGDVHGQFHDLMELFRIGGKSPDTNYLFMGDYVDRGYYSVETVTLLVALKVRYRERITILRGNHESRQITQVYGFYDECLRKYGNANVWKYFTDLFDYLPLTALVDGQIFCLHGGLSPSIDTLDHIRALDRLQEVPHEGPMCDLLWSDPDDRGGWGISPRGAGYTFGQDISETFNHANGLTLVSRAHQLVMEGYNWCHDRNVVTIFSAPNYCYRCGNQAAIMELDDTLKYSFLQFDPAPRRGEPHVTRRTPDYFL
Chain of PP2A (P30153 whole entry partner): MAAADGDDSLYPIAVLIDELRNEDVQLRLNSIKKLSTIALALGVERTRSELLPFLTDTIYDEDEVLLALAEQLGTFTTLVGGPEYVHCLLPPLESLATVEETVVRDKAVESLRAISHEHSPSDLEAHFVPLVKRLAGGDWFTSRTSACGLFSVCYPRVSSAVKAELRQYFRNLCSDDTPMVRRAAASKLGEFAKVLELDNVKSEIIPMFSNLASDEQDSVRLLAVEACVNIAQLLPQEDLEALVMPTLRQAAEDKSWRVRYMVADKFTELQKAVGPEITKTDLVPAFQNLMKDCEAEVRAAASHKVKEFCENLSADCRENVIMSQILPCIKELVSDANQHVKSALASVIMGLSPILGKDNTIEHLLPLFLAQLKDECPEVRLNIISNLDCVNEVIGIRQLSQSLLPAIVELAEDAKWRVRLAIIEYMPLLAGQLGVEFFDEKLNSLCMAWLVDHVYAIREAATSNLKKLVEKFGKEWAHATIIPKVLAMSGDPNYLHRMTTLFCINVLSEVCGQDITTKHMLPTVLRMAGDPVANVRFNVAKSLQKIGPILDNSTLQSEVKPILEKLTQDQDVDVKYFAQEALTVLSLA

SMILES: CN1CCN(C(=O)C2C(C(=O)O)[C@H]3CC[C@@H]2O3)CC1 (stereo partly shown) [LB100]
- FsE-driven impairment in the forced swim test (depressive-like phenotype) (C57Bl/6J mice [1]): sufficient to rescue the impairment
- FsE-driven impairment in the forced swim test (depressive-like phenotype) (C57Bl/6J mice [1]; listed as LB-100): behavioral normalization
- Latency to the first immobility, control vs FsE group (C57Bl/6J mice [1]; [5]): comparable
- Total immobility, control vs FsE group (C57Bl/6J mice [1]; [5]): comparable
- Ba2+ sensitive I-GTPγS in FsE animals vs CTRL (GIRK channels): restored
- Ba2+ sensitive I-GTPγS current (GIRK channels; CTRL mice): 94.27±13.29 pA
- Ba2+ sensitive I-GTPγS current (GIRK channels; FsE mice): 110.6±20.79 pA
- Ba2+ sensitive I-GTPγS in FsE animals vs CTRL (GIRK channels; listed as LB-100): comparable to the control group
- I-baclofen current ([2]; LB100 1.5 mg/kg ip 6-8 h after FsE protocol, recorded one day after, CTRL mice): 93.88±18.37 pA
- FsE-induced decrease in I-baclofen (CTRL vs FsE) [2, 6]: able to revert
- FsE-induced decrease in I-baclofen (CTRL vs FsE) [2, 7]: comparable
- FsE-induced I-baclofen attenuation (CTRL vs FsE) [2, 6]: not present
- FsE-induced I-baclofen attenuation (CTRL vs FsE) [2, 7]: comparable
- I-baclofen current ([2]; LB100 1.5 mg/kg ip 6-8 h after FsE, recorded one day after, FsE mice): 97.00±18.05 pA
- I-baclofen current ([2]; single injection of LB100 6-8 hours after the shock protocol, recorded 7 days later, CTRL mice): 95.54±30.00 pA
- I-baclofen current ([2]; single injection of LB100 6-8 hours after the shock, recorded 7 days later, FsE mice): 92.97±14.84 pA
- Toxicity in combination with standard cytotoxic anti-cancer drugs (cancer cells; in vivo): without observable increase in toxicity
- Anti-cancer activity when used alone (cancer cells): has anti-cancer activity
- Anti-cancer activity when used alone (cancer cells; listed as LB-100): inhibits the growth of cancer cells
- Potentiation in vivo of anti-tumor activity of standard cytotoxic anti-cancer drugs (cancer cells; with temozolomide, doxorubicin, docetaxel): significantly potentiates
- Duration of inhibition of PP2A activity (PP2A; 1.5 mg/Kg (Lu et al., 2009b)): about 12 hours
- Time of peak of PP2A-inhibiting activity (PP2A; 1.5 mg/Kg (Lu et al., 2009b)): ~8 h
- PP2A inhibition (PP2A; in vitro in human cancer cells and in xenografts of human tumor cells in mice when given parenterally): inhibitor of PP2A
- Freezing score in the re-exposure to the context test (C57Bl/6J mice [3]): did not affect
- FsE-induced inhibition of GABAB-GIRK currents (I-baclofen CTRL vs FsE) [4]: sufficient to rescue
- I-baclofen current ([4]; slices from CTRL mice): 88.41±18.64 pA
- I-baclofen current ([4]; slices from FsE mice): 85.09±0.67 pA
- FsE-induced inhibition of GABAB-GIRK currents (I-baclofen CTRL vs FsE) ([4]; listed as LB-100): comparable
